Experiments:
Rattus norvegicus [1] = experiment: Oral diuretic activity was measured after oral administration of 0.4 mg/kg to rats(control volume is 1.15+/-0.17); assay type: functional, Urine
Rattus norvegicus [2] = experiment: Ratio of urinary excretion value (Na+ concentration) in treated rats to that in control rats, at a peroral dose of 0.1 mg/Kg; assay type: functional, Urine
Rattus norvegicus [3] = experiment: Serum creatinine concentration measured after intraperitoneal administration of 0.1 mg/kg of compound to rats(vehicle 6.90+/-0.20); assay type: functional
Rattus norvegicus [4] = experiment: Ratio of urinary excretion value (urinary volume) in treated rats to that in control rats, at a peroral dose of 1.6 mg/Kg; assay type: functional, Urine
Rattus norvegicus [5] = experiment: Effect on urinary excretion potassium and sodium after oral administration of 1.6 mg/kg to rats(potassium and sodium excretion in control rat is 0.174+/-0.013); assay type: functional, Urine
Rattus norvegicus [6] = experiment: Percent inhibition of serum creatinine by the compound given as ratio of Cr value in treated to vehicle treated ones after intraperitoneal administration of 0.1 mg/kg of compound to rats(vehicle 6.90+/-0.20); assay type: functional; settings: ip
Rattus norvegicus [7] = experiment: Urea nitrogen concentration measured after intraperitoneal administration of 0.1 mg/kg of compound to rats(vehicle 171.3+/-6.4); assay type: functional
Rattus norvegicus [8] = experiment: Ratio of sodium ion/potassium ion concentration in treated rats to that in control rats, at a peroral dose of 1.6 mg/Kg; assay type: functional
Rattus norvegicus [9] = experiment: Oral diuretic activity was measured after oral administration of 1.6 mg/kg to rats(control volume is 0.86+/-0.09); assay type: functional, Urine
Rattus norvegicus [10] = experiment: Urea nitrogen concentration measured after intraperitoneal administration of 1 mg/kg of compound to rats(vehicle 139.8+/-7.8); assay type: functional
Rattus norvegicus [11] = experiment: Percent inhibition of serum creatinine by the compound given as ratio of Cr value in treated to vehicle treated ones after intraperitoneal administration of 1 mg/kg of compound to rats(vehicle 4.74+/-0.31); assay type: functional; settings: ip
Rattus norvegicus [12] = experiment: Percent inhibition of Urea nitrogen by the compound given as ratio of UN value in treated to vehicle treated ones after intraperitoneal administration of 1 mg/kg of compound to rats(vehicle 139.8+/-7.8); assay type: functional; settings: ip
Rattus norvegicus [13] = experiment: Ratio of urinary excretion value (Na+ concentration) in treated rats to that in control rats, at a peroral dose of 1.6 mg/Kg; assay type: functional, Urine
Rattus norvegicus [14] = experiment: Ratio of sodium ion/potassium ion concentration in treated rats to that in control rats, at a peroral dose of 0.4 mg/Kg; assay type: functional
Rattus norvegicus [15] = experiment: Ratio of urinary excretion value (urinary volume) in treated rats to that in control rats, at a peroral dose of 0.1 mg/Kg; assay type: functional, Urine
Rattus norvegicus [16] = experiment: Ratio of sodium ion/potassium ion concentration in treated rats to that in control rats, at a peroral dose of 0.1 mg/Kg; assay type: functional
Adenosine A2 receptor = Adenosine A2 receptor (Rattus norvegicus, UniProt P29276+P30543)
Rattus norvegicus [17] = experiment: Oral diuretic activity was measured after oral administration of 0.1 mg/kg to rats(control volume is 1.05+/-0.11); assay type: functional, Urine
Adenosine receptor A1 = biological target: T1, Adenosine receptor A1 (Cavia porcellus, UniProt P47745)
T1 sequence (P47745 whole entry): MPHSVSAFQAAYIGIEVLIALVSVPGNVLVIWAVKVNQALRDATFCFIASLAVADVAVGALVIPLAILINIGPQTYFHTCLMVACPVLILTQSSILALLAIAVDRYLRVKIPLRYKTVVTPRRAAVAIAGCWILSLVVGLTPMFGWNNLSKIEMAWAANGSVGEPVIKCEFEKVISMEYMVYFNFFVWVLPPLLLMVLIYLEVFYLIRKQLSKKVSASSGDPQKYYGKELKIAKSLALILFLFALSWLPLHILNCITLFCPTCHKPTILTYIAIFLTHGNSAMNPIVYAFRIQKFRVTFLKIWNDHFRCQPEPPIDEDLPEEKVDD
Description: Binding affinity against adenosine A1 receptor in guinea pig forebrain membranes using N6-[3H]cyclohexyladenosine as radioligand

Rattus norvegicus [18] = experiment: Effect on urinary excretion potassium and sodium after oral administration of 0.4 mg/kg to rats(potassium and sodium excretion in control rat is 0.191+/-0.020); assay type: functional, Urine
Rattus norvegicus [19] = experiment: Ratio of urinary excretion value (urinary volume) in treated rats to that in control rats, at a peroral dose of 0.4 mg/Kg; assay type: functional, Urine
Rattus norvegicus [20] = experiment: Percent inhibition of Urea nitrogen by the compound given as ratio of UN value in treated to vehicle treated ones after intraperitoneal administration of 0.1 mg/kg of compound to rats(vehicle 171.3+/-6.4); assay type: functional; settings: ip
Rattus norvegicus [21] = experiment: Effect on urinary excretion potassium and sodium after oral administration of 0.1 mg/kg to rats(potassium and sodium excretion in control rat is 0.180+/-0.017); assay type: functional, Urine
Rattus norvegicus [22] = experiment: Ratio of urinary excretion value (Na+ concentration) in treated rats to that in control rats, at a peroral dose of 0.4 mg/Kg; assay type: functional, Urine
Rattus norvegicus [23] = experiment: Serum creatinine concentration measured after intraperitoneal administration of 1 mg/kg of compound to rats(vehicle 4.74+/-0.31); assay type: functional
Rattus norvegicus [24] = experiment: Ratio of urinary excretion value (urinary volume) in treated rats to that in control rats, at a peroral dose of 6.25 mg/Kg; assay type: functional, Urine
Rattus norvegicus [25] = experiment: Ratio of sodium ion/potassium ion concentration in treated rats to that in control rats, at a peroral dose of 25 mg/Kg; assay type: functional
Rattus norvegicus [26] = experiment: Ratio of urinary excretion value (Na+ concentration) in treated rats to that in control rats, at a peroral dose of 25 mg/Kg; assay type: functional, Urine
Rattus norvegicus [27] = experiment: Urea nitrogen concentration measured after intraperitoneal administration of 10 mg/kg of compound to rats(vehicle 177.4+/-5.3); assay type: functional
Rattus norvegicus [28] = experiment: Ratio of urinary excretion value (Na+ concentration) in treated rats to that in control rats, at a peroral dose of 6.25 mg/Kg; assay type: functional, Urine
Rattus norvegicus [29] = species on record: Rattus norvegicus; experiment: animal or person; settings: ip, read-out: Inhibition, dose 1 mg/kg, route intraperitoneal
Rattus norvegicus [30] = experiment: Urea nitrogen concentration measured after intraperitoneal administration of 1 mg/kg of compound to rats(vehicle 195.8+/-14.4); assay type: functional
Rattus norvegicus [31] = experiment: Effect on urinary excretion potassium and sodium after oral administration of 25 mg/kg to rats(potassium and sodium excretion in control rat is 0.265+/-0.099); assay type: functional, Urine
Rattus norvegicus [32] = experiment: Serum creatinine concentration measured after intraperitoneal administration of 1 mg/kg of compound to rats(vehicle 5.07+/-0.33); assay type: functional
Rattus norvegicus [33] = experiment: Percent inhibition of serum creatinine by the compound given as ratio of Cr value in treated to vehicle treated ones after intraperitoneal administration of 10 mg/kg of compound to rats(vehicle 5.53+/-0.34); assay type: functional; settings: ip
Rattus norvegicus [34] = experiment: Percent inhibition of Urea nitrogen by the compound given as ratio of UN value in treated to vehicle treated ones after intraperitoneal administration of 10 mg/kg of compound to rats(vehicle 177.4+/-5.3); assay type: functional; settings: ip
Rattus norvegicus [35] = experiment: Serum creatinine concentration measured after intraperitoneal administration of 10 mg/kg of compound to rats(vehicle 5.53+/-0.34); assay type: functional
Rattus norvegicus [36] = experiment: Percent inhibition of Urea nitrogen by the compound given as ratio of UN value in treated to vehicle treated ones after intraperitoneal administration of 1 mg/kg of compound to rats(vehicle 195.8+/-14.4); assay type: functional; settings: Rattus norvegicus, ip
Rattus norvegicus [37] = experiment: Ratio of urinary excretion value (urinary volume) in treated rats to that in control rats, at a peroral dose of 25 mg/Kg; assay type: functional, Urine
Rattus norvegicus [38] = experiment: Oral diuretic activity was measured after oral administration of 25 mg/kg to rats(control volume is 1.64+/-0.7); assay type: functional, Urine

CCn1c(=O)c2nc(C3CCCC3)[nH]c2n(CC)c1=O
Urine volume (Rattus norvegicus [1]): 1.89 ml 6hr-1 100g-1 | T/C (Rattus norvegicus [2]): 1.15 | Cr (Rattus norvegicus [3]): 5.48 mg/dL | T/C (Rattus norvegicus [4]): 2.43 | Na (Rattus norvegicus [5]): 0.24 m equiv 6hr-1 100g-1 | inhibition in vivo at 0.1 mg/kg (Rattus norvegicus [6]): 21% | UN (Rattus norvegicus [7]): 143.9 mg/dL | Na+/K+ (Rattus norvegicus [8]): 1.56 | Urine volume (Rattus norvegicus [9]): 2.09 ml 6hr-1 100g-1 | UN (Rattus norvegicus [10]): 65.5 mg/dL | inhibition in vivo at 1 mg/kg (Rattus norvegicus [11]): 52% | inhibition in vivo at 1 mg/kg (Rattus norvegicus [12]): 53% | T/C (Rattus norvegicus [13]): 2.09 | Na+/K+ (Rattus norvegicus [14]): 1.54 | T/C (Rattus norvegicus [15]): 1.03 | Na+/K+ (Rattus norvegicus [16]): 1 | Ki (Adenosine A2 receptor): 440 nM | Urine volume (Rattus norvegicus [17]): 1.09 ml 6hr-1 100g-1 | Ki (Adenosine receptor A1): 19 nM | Na (Rattus norvegicus [18]): 0.342 m equiv 6hr-1 100g-1 | T/C (Rattus norvegicus [19]): 1.64 | inhibition in vivo at 0.1 mg/kg (Rattus norvegicus [20]): 16% | Na (Rattus norvegicus [21]): 0.206 m equiv 6hr-1 100g-1 | T/C (Rattus norvegicus [22]): 1.79 | Cr (Rattus norvegicus [23]): 2.28 mg/dL

CCCn1c(=O)[nH]c(=O)c2[nH]c(C34CC5CC(CC3C5)C4)nc21
T/C (Rattus norvegicus [24]): 1.26 | Na+/K+ (Rattus norvegicus [25]): 1.29 | T/C (Rattus norvegicus [26]): 1.51 | UN (Rattus norvegicus [27]): 107.4 mg/dL | T/C (Rattus norvegicus [28]): 1.49 | inhibition in vivo at 1 mg/kg (Rattus norvegicus [29]): 15% | UN (Rattus norvegicus [30]): 164.9 mg/dL | Na (Rattus norvegicus [31]): 0.4 m equiv 6hr-1 100g-1 | Cr (Rattus norvegicus [32]): 4.33 mg/dL | inhibition in vivo at 10 mg/kg (Rattus norvegicus [33]): 49% | inhibition in vivo at 10 mg/kg (Rattus norvegicus [34]): 39% | Cr (Rattus norvegicus [35]): 2.83 mg/dL | Ki (Adenosine A2 receptor): > 100000 nM | inhibition in vivo at 1 mg/kg (Rattus norvegicus [36]): 16% | T/C (Rattus norvegicus [37]): 1.43 | Urine volume (Rattus norvegicus [38]): 2.34 ml 6hr-1 100g-1

Source: ChEMBL document CHEMBL1125524, “Adenosine A1 antagonists. 2. Structure-activity relationships on diuretic activities and protective effects against acute renal failure” (J Med Chem, 1992)
